Results taken from patent US20240270821A1, “GIP/GLP1/GCG TRI-RECEPTOR AGONISTS AND USES THEREOF” (priority 2023, published 2024).
Starred links: 1 amine or outer side, 2 acyl side, 3 side chain; linkers in the order of their positions; H or OH if unused. Non-standard residues stand in square brackets, D forms with d. Groups on a side chain read outwards from the residue. *: point of attachment. C18 diacid = O=C(O)CCCCCCCCCCCCCCCCC(=O)*; γGlu = O=C(O)[C@H](CCC(=O)[*:2])N[*:1]; αMe4Pal = C[C@](N)(Cc1ccncc1)C(=O)O; αMeY = C[C@](N)(Cc1ccc(O)cc1)C(=O)O; 4Pal = N[C@@H](Cc1ccncc1)C(=O)O; αMeL = CC(C)C[C@](C)(N)C(=O)O; Orn = NCCC[C@H](N)C(=O)O; AEEA = NCCOCCOCC(=O)O; Aib = CC(C)(N)C(=O)O

Columns and labels:
Format in all cases: cell-based
[1] = molecular target: T1, hGIPR (Homo sapiens, UniProt P48546); experiment: Functional cAMP activity in the presence of 1% HSA; settings: read-out: cAMP Rel EC50, hGIPR
T1 sequence (P48546 22-466): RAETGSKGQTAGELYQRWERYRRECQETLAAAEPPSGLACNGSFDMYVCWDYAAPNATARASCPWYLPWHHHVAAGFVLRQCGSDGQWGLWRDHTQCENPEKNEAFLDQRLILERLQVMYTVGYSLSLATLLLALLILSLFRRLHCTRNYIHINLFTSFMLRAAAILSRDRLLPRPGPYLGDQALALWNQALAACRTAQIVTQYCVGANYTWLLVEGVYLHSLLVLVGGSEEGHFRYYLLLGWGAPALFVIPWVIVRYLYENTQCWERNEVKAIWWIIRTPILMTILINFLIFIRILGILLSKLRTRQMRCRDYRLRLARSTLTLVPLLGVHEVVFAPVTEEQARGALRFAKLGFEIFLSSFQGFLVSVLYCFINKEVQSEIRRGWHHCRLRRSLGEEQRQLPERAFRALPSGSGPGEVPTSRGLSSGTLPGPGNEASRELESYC

[2] = molecular target: T2, hGLP-1R (Homo sapiens, UniProt P43220); experiment: Functional cAMP activity in the presence of 1% HSA; settings: read-out: cAMP Rel EC50, hGLP-1R
[3] = molecular target: human GcgR (Homo sapiens, UniProt P47871); experiment: Functional cAMP activity in the presence of 1% HSA; settings: read-out: cAMP Rel EC50, hGcgR
[4] = molecular target: T1, hGIPR; experiment: Functional cAMP activation in the presence of 0.1% casein (no HSA); settings: in the presence of 0.1% casein (no HSA); geometric mean; read-out: Relative cAMP EC50, hGIPR;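 on Relative cAMP EC50, hGIPR: intracellular cAMP rise after 30 min at 37 °C read by HTRF against a standard curve, scaled between buffer alone (0%) and top control ligand concentration (100%), four-parameter fit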;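 on Relative cAMP EC50, hGLP-1R: intracellular cAMP rise after 30 min at 37 °C read by HTRF, normalized between buffer only (0%) and maximal control ligand (100%), four-parameter variable-slope fit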;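 on Relative cAMP EC50, hGcgR: intracellular cAMP rise after 30 min at 37 °C, read by HTRF against a cAMP standard curve, scaled from buffer only (0%) to maximal control ligand response (100%)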
[5] = molecular target: T2, hGLP-1R; experiment: as above; settings: in the presence of 0.1% casein (no HSA); geometric mean; read-out: Relative cAMP EC50, hGLP-1R
[6] = molecular target: hGcgR (Homo sapiens, UniProt P47871); experiment: as above; settings: in the presence of 0.1% casein (no HSA); geometric mean; read-out: Relative cAMP EC50, hGcgR;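 further: intracellular cAMP rise after 30 min at 37 °C, read by HTRF against a cAMP standard curve, scaled from buffer only (0%) to maximal control ligand response (100%)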
hGcgR, sequence (P47871 26-477): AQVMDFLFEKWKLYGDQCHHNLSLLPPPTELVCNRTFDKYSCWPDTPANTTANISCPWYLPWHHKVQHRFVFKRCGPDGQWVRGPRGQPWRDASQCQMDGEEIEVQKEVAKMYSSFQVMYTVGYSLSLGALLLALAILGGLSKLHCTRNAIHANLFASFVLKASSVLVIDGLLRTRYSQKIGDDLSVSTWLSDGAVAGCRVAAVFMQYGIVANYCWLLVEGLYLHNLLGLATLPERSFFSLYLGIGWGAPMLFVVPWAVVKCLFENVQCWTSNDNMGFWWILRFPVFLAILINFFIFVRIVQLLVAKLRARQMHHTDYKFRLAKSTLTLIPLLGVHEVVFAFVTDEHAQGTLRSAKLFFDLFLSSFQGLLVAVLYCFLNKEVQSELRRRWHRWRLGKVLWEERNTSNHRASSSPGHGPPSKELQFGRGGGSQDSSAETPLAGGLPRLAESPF

human GcgR, sequence (P47871 26-477): as above
T2 sequence (P43220 24-463): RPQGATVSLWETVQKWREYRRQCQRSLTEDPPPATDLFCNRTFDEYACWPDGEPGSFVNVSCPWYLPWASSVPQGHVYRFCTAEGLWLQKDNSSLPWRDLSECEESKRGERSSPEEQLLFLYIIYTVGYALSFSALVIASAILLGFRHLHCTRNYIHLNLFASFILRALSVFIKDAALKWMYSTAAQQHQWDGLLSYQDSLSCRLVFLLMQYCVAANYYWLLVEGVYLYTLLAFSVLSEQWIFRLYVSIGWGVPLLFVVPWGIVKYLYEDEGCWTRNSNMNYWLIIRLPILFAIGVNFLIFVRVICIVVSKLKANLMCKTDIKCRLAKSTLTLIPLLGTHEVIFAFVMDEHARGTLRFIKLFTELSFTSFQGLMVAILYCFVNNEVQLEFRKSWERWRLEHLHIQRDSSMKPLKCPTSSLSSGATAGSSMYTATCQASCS

For “H-Y[Aib]QGTFTSD[4Pal]SQ[αMeL]LD[Orn]K([γGlu-γGlu-C18 diacid])AQ[αMe4Pal]AFIE[αMeY]LIEGGPSSGAPPPSGSEE-NH2 [Example 1043]”, the EC50 [1] was 44.9 nM, the EC50 [2] was 268 nM and the EC50 [3] was 2240 nM. For the same substance, the EC50 [4] was 0.282 nM, the EC50 [5] was 1.52 nM and the EC50 [6] was 17.1 nM.

“H-Y[Aib]QGTFTSD[4Pal]SQ[αMeL]LD[Orn]K([γGlu-γGlu-C18 diacid])AQ[αMe4Pal]AFIE[αMeY]LIE[Aib]GPSSGEPPPSGSEE-NH2 [Example 1093]” was tested, and the EC50 [1] was 26.8 nM, the EC50 [2] was 141 nM and the EC50 [3] was 958 nM. The EC50 [4] was 0.152 nM, the EC50 [5] was 0.954 nM and the EC50 [6] was 7.72 nM.

Substance “H-Y[Aib]QGTFTSD[4Pal]SQ[αMeL]LD[Orn]K([γGlu-γGlu-C18 diacid])AQ[αMe4Pal]AFI[dE][αMeY]LIEGGPSSGAPPPSGSEE-NH2 [Example 1044]” has an EC50 [1] of 88.7 nM, an EC50 [2] of 1110 nM and an EC50 [3] of 2410 nM. The EC50 [4] was 0.896 nM, the EC50 [5] was 10.7 nM and the EC50 [6] was 18.8 nM.

“H-Y[Aib]QGTFTSD[4Pal]SQ[αMeL]LD[Orn]K([γGlu-γGlu-C18 diacid])AQ[αMe4Pal]QFIEYLIAGGPSSGAPPPSGSEE-NH2 [Example 1005]” gave an EC50 [1] of 14.5 nM, an EC50 [2] of 171 nM and an EC50 [3] of 1670 nM. It also gave an EC50 [4] of 0.152 nM, an EC50 [5] of 1.48 nM and an EC50 [6] of 9.46 nM.

Substance “H-Y[Aib]QGTFTSD[4Pal]SQ[αMeL]LD[Orn]K([γGlu-γGlu-C18 diacid])AQ[αMe4Pal]QFIEYLLAGGPSSGAPPPSGSEE-NH2 [Example 1006]” has an EC50 [1] of 11.8 nM, an EC50 [2] of 574 nM and an EC50 [3] of 315 nM. It also gave an EC50 [4] of 0.109 nM, an EC50 [5] of 5.12 nM and an EC50 [6] of 4.28 nM.

With “H-Y[Aib]QGTFTSD[4Pal]SQ[αMeL]LD[Orn]K([γGlu-γGlu-C18 diacid])AQ[αMe4Pal]QFIE[αMeY]LIEGGPSSGAPPPSGSEE-NH2 [Example 1046]” the EC50 [1] was 85 nM, the EC50 [2] was 528 nM and the EC50 [3] was 1680 nM. The EC50 [4] was 0.352 nM, the EC50 [5] was 1.94 nM and the EC50 [6] was 10 nM.

For “H-Y[Aib]QGTFTSD[4Pal]SR[αMeL]LDKK([AEEA-AEEA-γGlu-C18 diacid])AQ[αMe4Pal]AFIEYLIE[Aib]GPSSGAPPPSGS-NH2 [Example 815]”, the EC50 [1] was 17.9 nM, the EC50 [2] was 342 nM and the EC50 [3] was 798 nM. The EC50 [4] was 0.181 nM, the EC50 [5] was 2.79 nM and the EC50 [6] was 4.13 nM.

With “H-Y[Aib]QGTFTSD[4Pal]SR[αMeL]LDKK([AEEA-γGlu-C18 diacid])AQ[Aib]AFIEYLIE[Aib]GPSSGAPPPSGS-NH2 [Example 802]” the EC50 [1] was 16.9 nM, the EC50 [2] was 153 nM and the EC50 [3] was 2520 nM. For the same substance, the EC50 [4] was 0.124 nM, the EC50 [5] was 1.41 nM and the EC50 [6] was 16.6 nM.

With “H-Y[Aib]QGTFTSD[4Pal]SR[αMeL]LDKK([AEEA-γGlu-C18 diacid])AQ[Aib]AFIE[αMeY]LIEGGPSSGAPPPSGS-NH2 [Example 837]” the EC50 [1] was 20.7 nM, the EC50 [2] was 69.6 nM and the EC50 [3] was 2060 nM. For the same substance, the EC50 [4] was 0.209 nM, the EC50 [5] was 0.551 nM and the EC50 [6] was 7.24 nM.

In the case of “H-Y[Aib]QGTFTSD[4Pal]SR[αMeL]LDKK([AEEA-γGlu-C18 diacid])AQ[Aib]AFIE[αMeY]LLEGGPSSGAPPPSGS-NH2 [Example 909]”, the EC50 [1] is reported as 20.2 nM, the EC50 [2] is reported as 243 nM and the EC50 [3] is reported as 1740 nM. The EC50 [4] was 0.121 nM, the EC50 [5] was 1.72 nM and the EC50 [6] was 6.82 nM.

With “H-Y[Aib]QGTFTSD[4Pal]SR[αMeL]LDKK([AEEA-γGlu-C18 diacid])AQ[αMe4Pal]AFIEYLIE[Aib]GPSSGAPPPSGS-NH2 [Example 809]” the EC50 [1] was 20.4 nM, the EC50 [2] was 249 nM and the EC50 [3] was 377 nM. The EC50 [4] was 0.194 nM, the EC50 [5] was 1.87 nM and the EC50 [6] was 1.74 nM.

Substance “H-Y[Aib]QGTFTSD[4Pal]SR[αMeL]LDKK([AEEA-γGlu-C18 diacid])AQ[αMe4Pal]AFIE[αMe4Pal]LIEGGPSSGAPPPSGSEE-NH2 [Example 956]” has an EC50 [1] of 32.1 nM, an EC50 [2] of 643 nM and an EC50 [3] of 406 nM. For the same substance, the EC50 [4] was 0.26 nM, the EC50 [5] was 4.83 nM and the EC50 [6] was 2.17 nM.

“H-Y[Aib]QGTFTSD[4Pal]SR[αMeL]LDKK([γGlu-γGlu-C18 diacid])AQ[αMe4Pal]AFIEYLIAGGESSGAPPPSGSEE-NH2 [Example 965]” showed an EC50 [1] of 23.2 nM, an EC50 [2] of 194 nM and an EC50 [3] of 430 nM. The EC50 [4] was 0.13 nM, the EC50 [5] was 1.39 nM and the EC50 [6] was 3.35 nM.
